Laboratory results as given in ChEMBL document CHEMBL1201862, “PubChem BioAssay data set” (2004).
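Test compounds were applied to cells in 96-well plates for 48 hours at 5 doses. Here, GI50 denotes the concentration required for 50% inhibition of growth.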 Active and inactive are the calls of the source. Rule as the data show it: active = GI50 up to about 1.1 µM and inactive = higher.

Experiments:
Test in all cases: NCI anticancer screen, dose series, 48 h
HCC 2998 = tested on: HCC 2998
HL-60 = tested on: HL-60
SN12C = tested on: SN12C
NCI-H226 = tested on: NCI-H226
K562 = tested on: K562
SR = tested on: SR
ACHN = tested on: ACHN
HOP-92 = tested on: HOP-92
NCI/ADR-RES = tested on: NCI/ADR-RES
DU-145 = tested on: DU-145
786-0 = tested on: 786-0
NCI-H460 = tested on: NCI-H460
A549 = tested on: A549
SF-268 = tested on: SF-268
HCT-116 = tested on: HCT-116
SF-295 = tested on: SF-295
UACC-257 = tested on: UACC-257
U-251 = tested on: U-251
SK-MEL-5 = tested on: SK-MEL-5
EKVX = tested on: EKVX
OVCAR-5 = tested on: OVCAR-5
MOLT-4 = tested on: MOLT-4
COLO 205 = tested on: COLO 205
BT-549 = tested on: BT-549
NCI-H522 = tested on: NCI-H522
SNB-75 = tested on: SNB-75
TK-10 = tested on: TK-10
SK-MEL-2 = tested on: SK-MEL-2
UO-31 = tested on: UO-31
HOP-62 = tested on: HOP-62
LOX IMVI = tested on: LOX IMVI
OVCAR-3 = tested on: OVCAR-3
SK-OV-3 = tested on: SK-OV-3
Malme-3M = tested on: Malme-3M
Hs-578T = tested on: Hs-578T
KM12 = tested on: KM12
A498 = tested on: A498
CCRF-CEM = tested on: CCRF-CEM
CAKI-1 = tested on: CAKI-1
OVCAR-8 = tested on: OVCAR-8
SF-539 = tested on: SF-539
PC-3 = tested on: PC-3
M14 = tested on: M14
SK-MEL-28 = tested on: SK-MEL-28
NCI-H23 = tested on: NCI-H23
SW-620 = tested on: SW-620
T47D = tested on: T47D
SNB-19 = tested on: SNB-19
MDA-MB-231 = tested on: MDA-MB-231
HCT-15 = tested on: HCT-15
MCF7 = tested on: MCF7
MDA-MB-435 = tested on: MDA-MB-435
RPMI-8226 = tested on: RPMI-8226
UACC-62 = tested on: UACC-62
IGROV-1 = tested on: IGROV-1
OVCAR-4 = tested on: OVCAR-4
HT-29 = tested on: HT-29
MDA-N = tested on: MDA-N
RXF 393 = tested on: RXF 393

Measured: GI50

CNn1c(C)n[nH]c1=O
> 100 µM: HCT-15
inactive: HCC 2998 > 100 µM | HL-60 > 100 µM | SN12C > 100 µM | NCI-H226 > 100 µM | K562 > 100 µM | SR > 100 µM | ACHN > 100 µM | HOP-92 > 100 µM | NCI/ADR-RES > 100 µM | DU-145 > 100 µM | 786-0 > 100 µM | NCI-H460 > 100 µM | A549 > 100 µM | SF-268 > 100 µM | HCT-116 > 100 µM | SF-295 > 100 µM | UACC-257 > 100 µM | U-251 > 100 µM | SK-MEL-5 > 100 µM | EKVX > 100 µM | OVCAR-5 > 100 µM | MOLT-4 > 100 µM | COLO 205 > 100 µM | BT-549 > 100 µM | NCI-H522 > 100 µM | SNB-75 50.8 µM | TK-10 > 100 µM | SK-MEL-2 > 100 µM | UO-31 > 100 µM | HOP-62 > 100 µM | LOX IMVI > 100 µM | OVCAR-3 > 100 µM | SK-OV-3 > 100 µM | Malme-3M 96.8 µM | Hs-578T > 100 µM | KM12 > 100 µM | A498 > 100 µM | CCRF-CEM > 100 µM | CAKI-1 > 100 µM | OVCAR-8 > 100 µM | SF-539 > 100 µM | PC-3 > 100 µM | M14 > 100 µM | SK-MEL-28 > 100 µM | NCI-H23 > 100 µM | SW-620 > 100 µM | T47D > 100 µM | SNB-19 > 100 µM | MDA-MB-231 > 100 µM | MCF7 > 100 µM | MDA-MB-435 > 100 µM | RPMI-8226 > 100 µM | UACC-62 > 100 µM | IGROV-1 > 100 µM | OVCAR-4 > 100 µM

CCOC(=O)C1=C(c2ccccc2)N(C)c2ccccc2S1
inactive: HL-60 37.4 µM | SN12C 23.9 µM | NCI-H226 21.7 µM | HT-29 17.4 µM | K562 36.8 µM | SR 31.6 µM | ACHN 24.1 µM | HOP-92 44.5 µM | NCI/ADR-RES 22.3 µM | DU-145 44.2 µM | 786-0 31.8 µM | NCI-H460 24.7 µM | A549 35.6 µM | SF-268 29.4 µM | HCT-116 25.2 µM | SF-295 35.8 µM | UACC-257 31.6 µM | U-251 19.8 µM | SK-MEL-5 16.1 µM | EKVX 32 µM | OVCAR-5 35.1 µM | MOLT-4 32.4 µM | COLO 205 31.3 µM | BT-549 21.5 µM | NCI-H522 25.6 µM | SNB-75 38.6 µM | TK-10 46.5 µM | SK-MEL-2 23.2 µM | UO-31 22.4 µM | HOP-62 36.4 µM | LOX IMVI 16.7 µM | OVCAR-3 36 µM | SK-OV-3 92.5 µM | Malme-3M 40.6 µM | Hs-578T 23.3 µM | CCRF-CEM 31 µM | CAKI-1 31 µM | OVCAR-8 33.6 µM | SF-539 37.2 µM | PC-3 29.9 µM | M14 34.5 µM | SK-MEL-28 38.9 µM | NCI-H23 20.1 µM | SW-620 44.4 µM | T47D 18.1 µM | SNB-19 69.5 µM | MDA-MB-231 29.6 µM | MCF7 36 µM | MDA-MB-435 33.2 µM | RPMI-8226 17 µM | UACC-62 19 µM | IGROV-1 32.4 µM | OVCAR-4 30.1 µM
14.6 µM: HCT-15

FC1CCN(C2(c3cccs3)CCCCC2)CC1
> 100 µM: HCT-15
inactive: HCC 2998 27.2 µM | HL-60 > 100 µM | SN12C > 100 µM | NCI-H226 > 100 µM | HT-29 47.8 µM | K562 > 100 µM | ACHN > 100 µM | HOP-92 62.8 µM | NCI/ADR-RES > 100 µM | DU-145 > 100 µM | 786-0 > 100 µM | NCI-H460 > 100 µM | A549 > 100 µM | HCT-116 > 100 µM | SF-295 > 100 µM | UACC-257 60.4 µM | U-251 > 100 µM | MDA-N > 100 µM | SK-MEL-5 > 100 µM | EKVX > 100 µM | OVCAR-5 > 100 µM | MOLT-4 > 100 µM | COLO 205 > 100 µM | BT-549 > 100 µM | NCI-H522 > 100 µM | RXF 393 > 100 µM | SNB-75 > 100 µM | TK-10 > 100 µM | SK-MEL-2 > 100 µM | UO-31 > 100 µM | HOP-62 > 100 µM | LOX IMVI 96.6 µM | OVCAR-3 > 100 µM | SK-OV-3 > 100 µM | Malme-3M 25.5 µM | KM12 > 100 µM | A498 > 100 µM | CAKI-1 > 100 µM | OVCAR-8 > 100 µM | PC-3 > 100 µM | M14 77.1 µM | SK-MEL-28 > 100 µM | NCI-H23 > 100 µM | SW-620 > 100 µM | T47D > 100 µM | SNB-19 > 100 µM | MDA-MB-231 > 100 µM | MCF7 > 100 µM | MDA-MB-435 > 100 µM | RPMI-8226 56.5 µM | UACC-62 > 100 µM | IGROV-1 > 100 µM | OVCAR-4 > 100 µM
